Results as given in paper PMC10005967, “Discriminative binding of tau PET tracers PI2620, MK6240 and RO948 in Alzheimer’s disease, corticobasal degeneration and progressive supranuclear palsy brains” (Molecular Psychiatry, 2022).
Where “and” joins values, the source holds several entries; their conditions need not be identical. Equal values may be shown once. Read-outs that look alike come from different tables or passages of the source.

What was measured:
[1] = target: tau, AD FC brain homogenates (Homo sapiens, UniProt P10636); assay: ^3H-PI2620 competitive binding assay in AD frontal cortex brain homogenates; conditions: for proportion of HA binding sites / proportion of SHA binding sites: vs 0.6 nM ^3H-PI2620; for IC50: vs 0.6 nM ^3H-PI2620, 2-site competition model
Sequence of tau, AD FC brain homogenates (P10636 623-708 limits assumed): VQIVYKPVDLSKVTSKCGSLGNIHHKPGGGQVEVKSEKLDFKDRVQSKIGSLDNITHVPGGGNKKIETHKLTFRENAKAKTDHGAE
Procedure: (§1) Frozen human brain tissue from eleven AD, five CBD, four PSP and eight control patients was provided by the Netherlands Brain Bank (Amsterdam, Netherlands). Frozen human brain tissue from PSP case number 26 was provided by Professor Bernadino Ghetti, the Neuropathology of Dementia Laboratory, Indiana University School of Medicine (Indianapolis, IN, USA) (see Table 1 for demographic data). Brain homogenates were prepared by homogenising the brain tissue in phosphate buffer saline (PBS; pH 7.4) containing 0.1% BSA (250 mg tissue/mL) and protease/phosphatase inhibitors (10 μL/mL); aliquots were stored at −80 °C until used in the binding experiments.
Competitive binding assays on four AD FC brain homogenates [two early-onset (EO) AD and two late-onset (LO) AD; 0.5 mg tissue] were performed using 0.6 nM of ^3H-PI2620 and increasing concentrations (1 × 10^−18 M to 1 × 10^−6 M) of unlabelled PI2620, unlabelled MK6240 and unlabelled RO948 for 2 h at RT. The binding assay was accomplished as described above. The half-maximal inhibitory concentration (IC50) was measured using the 2-site competition model in GraphPad Prism 9 software.

[2] = tested on: tau, AD brain homogenates; conditions: cited from earlier work; for high-affinity (HA) binding site: AD brain homogenates
tau, CBD FC homogenates = tau, CBD FC homogenates (Homo sapiens, UniProt P10636); assay: ^3H-PI2620 competitive binding assay in CBD frontal cortex brain homogenates
Sequence of tau, CBD FC homogenates (P10636 561-697 limits assumed): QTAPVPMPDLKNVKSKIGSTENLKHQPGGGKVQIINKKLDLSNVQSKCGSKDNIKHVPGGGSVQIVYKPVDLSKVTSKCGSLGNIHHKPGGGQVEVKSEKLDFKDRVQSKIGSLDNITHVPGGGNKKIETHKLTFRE
Procedure: as §1
(§2) Competitive binding assays were also carried out under the same conditions, on three PSP FC homogenates and three CBD FC homogenates using 0.6 nM and 1 nM of ^3H-PI2620, respectively, in the presence of increasing concentrations of unlabelled PI2620 (1 × 10^−18 M to 1 × 10^−6 M). The 2-site competition model in GraphPad Prism 9 software was used to plot the AD, CBD, and PSP data.

tau, PSP FC homogenates = tau, PSP FC homogenates (Homo sapiens, UniProt P10636); assay: ^3H-PI2620 competitive binding assay in PSP frontal cortex brain homogenates; conditions: vs 0.6 nM ^3H-PI2620, only one binding site
Sequence of tau, PSP FC homogenates (P10636 561-698 limits assumed): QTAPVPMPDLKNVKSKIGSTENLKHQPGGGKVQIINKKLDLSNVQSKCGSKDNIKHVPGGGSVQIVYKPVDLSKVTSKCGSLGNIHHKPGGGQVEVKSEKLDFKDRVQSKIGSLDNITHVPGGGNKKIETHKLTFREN
Procedure: as §1, §2

[3] = tested on: tau, post-mortem PSP brain tissue; conditions: cited from earlier work
[4] = read-out: IC50(1), super-high affinity (SHA) site
[5] = read-out: IC50(2), high affinity (HA) site

Compound	proportion of HA binding sites [1]	proportion of SHA binding sites [1]	IC50 [1, 4] [nM]	IC50 [1, 5] [nM]	high-affinity (HA) binding site [2] [nM]	HA site ([2]; AD hippocampus, ^3H-MK6240) [nM]	super-high affinity (SHA) site ([2]; AD hippocampus, ^3H-MK6240) [pM]	proportion of HA site ([2]; AD hippocampus) [%]	proportion of SHA site ([2]; AD hippocampus) [%]	proportion of HA binding sites (tau, CBD FC homogenates; vs 1 nM ^3H-PI2620) [%]	proportion of SHA binding sites (tau, CBD FC homogenates; vs 1 nM ^3H-PI2620) [%]	IC50 (tau, CBD FC homogenates; vs 1 nM ^3H-PI2620, read-out: IC50(1), SHA site) [nM]	IC50 (tau, CBD FC homogenates; vs 1 nM ^3H-PI2620, read-out: IC50(2), HA site) [nM]	IC50 (tau, PSP FC homogenates) [nM]	in vitro binding using autoradiography [3]
Nc1c(F)ccc2cnc(-n3ccc4ccncc43)cc12 [MK6240]	> 70% and 76%	> 20% and 24%	0.0027	4.5	0.15 to 0.32	12	1	42	58	–	–	–	–	–	–
Fc1ccc(-c2ccc3c(n2)[nH]c2cnccc23)cn1 [RO948]	> 70% and 79%	> 20% and 21%	0.0058	6.8	18	–	–	–	–	–	–	–	–	–	–
Fc1cc(-c2ccc3c(n2)[nH]c2ccncc23)ccn1 [PI2620]	> 70% and 77%	> 20% and 23%	0.0081	4.9	8.5	–	–	–	–	54	46	0.0056	7.7	2.5	–
Fc1ccc(-c2ccc3c(c2)[nH]c2ccncc23)cn1 [^18F-AV-1451]	–	–	–	–	–	–	–	–	–	–	–	–	–	–	no in vitro binding
